Data as given in US7605165B2, “Phenylalanine derivatives” (Ajinomoto Co., Inc., priority 2002, dated 2009).

Legend:
integrin α4β7 = biological target: T1, integrin α4β7 (Homo sapiens, UniProt P13612+P26010); assay: Assessment of VCAM-1/α4β7 binding antagonistic activity (RPMI-8866 cells binding to VCAM-1); assay type: cell-based; conditions: RPMI-8866 human B lymphoma cells binding to recombinant human VCAM-1, binding buffer with 4 mM MnCl2; read-out: integrin VCAM/α4 binding antagonistic activity (IC50) α4β7
T1 construct: lymphoma cell strain RPMI-8866 of human B cells, known to express integrin α4β7; endogenous in cells; host or cells: RPMI-8866, human B-cell lymphoma line
T1 sequence (P13612 34-1032): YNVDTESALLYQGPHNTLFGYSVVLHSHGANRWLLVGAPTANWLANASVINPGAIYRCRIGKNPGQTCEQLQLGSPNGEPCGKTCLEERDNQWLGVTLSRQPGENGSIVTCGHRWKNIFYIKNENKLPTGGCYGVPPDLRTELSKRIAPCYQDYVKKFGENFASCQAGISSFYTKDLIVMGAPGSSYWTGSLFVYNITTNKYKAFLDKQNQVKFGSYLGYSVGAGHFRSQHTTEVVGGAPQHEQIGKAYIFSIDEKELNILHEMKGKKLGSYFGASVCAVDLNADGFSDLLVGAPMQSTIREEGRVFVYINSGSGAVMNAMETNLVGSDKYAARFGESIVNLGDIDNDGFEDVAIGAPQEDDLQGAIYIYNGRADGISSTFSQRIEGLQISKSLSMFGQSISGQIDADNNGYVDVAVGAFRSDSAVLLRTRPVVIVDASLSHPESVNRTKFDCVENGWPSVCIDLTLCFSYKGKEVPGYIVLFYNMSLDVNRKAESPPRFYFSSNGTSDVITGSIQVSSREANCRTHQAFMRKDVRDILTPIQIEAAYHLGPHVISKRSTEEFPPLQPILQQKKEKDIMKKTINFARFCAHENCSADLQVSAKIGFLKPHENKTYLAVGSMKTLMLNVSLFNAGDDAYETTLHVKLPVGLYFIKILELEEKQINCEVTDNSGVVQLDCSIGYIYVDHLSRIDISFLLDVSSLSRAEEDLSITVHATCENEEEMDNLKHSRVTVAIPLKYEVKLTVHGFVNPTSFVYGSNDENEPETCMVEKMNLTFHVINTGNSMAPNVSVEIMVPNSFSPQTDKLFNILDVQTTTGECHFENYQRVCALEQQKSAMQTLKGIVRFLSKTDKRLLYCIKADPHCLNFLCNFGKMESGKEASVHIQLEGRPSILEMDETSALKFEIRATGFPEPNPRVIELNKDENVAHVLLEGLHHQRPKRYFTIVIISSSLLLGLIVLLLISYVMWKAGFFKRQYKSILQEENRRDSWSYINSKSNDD
T1 sequence (P26010 20-798): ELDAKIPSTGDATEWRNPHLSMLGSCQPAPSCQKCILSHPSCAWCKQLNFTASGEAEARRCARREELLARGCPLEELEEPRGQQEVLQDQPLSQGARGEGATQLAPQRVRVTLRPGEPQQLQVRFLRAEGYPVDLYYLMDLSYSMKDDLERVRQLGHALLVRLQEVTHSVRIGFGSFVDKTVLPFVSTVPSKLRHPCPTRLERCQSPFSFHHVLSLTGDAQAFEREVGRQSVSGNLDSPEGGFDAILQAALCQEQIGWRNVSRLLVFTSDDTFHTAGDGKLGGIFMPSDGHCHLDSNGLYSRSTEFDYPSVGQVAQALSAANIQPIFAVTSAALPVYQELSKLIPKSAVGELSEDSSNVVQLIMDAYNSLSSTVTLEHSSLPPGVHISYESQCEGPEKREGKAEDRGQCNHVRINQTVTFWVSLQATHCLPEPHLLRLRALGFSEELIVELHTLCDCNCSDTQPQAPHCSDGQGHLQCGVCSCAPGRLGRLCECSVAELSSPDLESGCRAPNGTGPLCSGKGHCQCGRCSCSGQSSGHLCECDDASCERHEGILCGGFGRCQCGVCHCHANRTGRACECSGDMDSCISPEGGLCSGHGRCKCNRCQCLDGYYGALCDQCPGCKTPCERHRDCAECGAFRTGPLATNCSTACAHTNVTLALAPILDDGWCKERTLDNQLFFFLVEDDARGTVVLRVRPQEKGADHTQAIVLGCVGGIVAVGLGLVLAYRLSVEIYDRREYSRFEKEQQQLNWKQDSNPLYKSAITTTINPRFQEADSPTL
Procedure: The capacity of a test substance antagonistic to the binding of lymphoma cell strain RPMI-8866 of human B cells, known to express integrin α4β7, to VCAM-1 was determined.
(§1) 100 μl/well of a solution (500 ng/ml) of recombinant human VCAM-1 (R & D systems) solution diluted with buffer A (0.1 M NaHCO3, pH 9.6) was added to a micro titer plate having 96 wells (Nunc Maxisorp). After the incubation at 4° C. overnight, unbound VCAM-1 was removed by washing once with PBS. After completion of the washing, a buffer (buffer B) obtained by diluting Block Ace (Dainippon Pharmaceutical Co., Ltd.) with PBS to 1/4 concentration was added in an amount of 150 μl/well. After the incubation at room temperature for 1 hour, buffer B was removed and the plate was washed with PBS once.
RPMI-8866 cells were washed with DMEM twice and incubated in Dulbecco modified Eagle medium containing 10 μg/ml of Calcein-AM (Wako Pure Chemical Industries, Ltd.) (SIGMA, hereinafter referred to as “DMEM”) in dark place at 37° C. for 30 minutes to label with fluorescence. The cells were again suspended in a binding buffer (20 mM HEPES, DMEM containing 0.1% BSA) containing 4 mM of MnCl2.
(§2) 50 μl of a test substance of various concentrations obtained by the dilution with the binding buffer was added to the plate. Immediately thereafter, 50 μl (final volume: 100 μl/well) of the fluorescent RPMI-8866 cells (4×10^6 cells/ml) were added thereto, and they were incubated in dark place at room temperature for 30 minutes. After the shaking on a plate shaker (IKA MTS-4) at 800 rpm for 30 seconds, the solution was immediately removed to remove the unbound cells. The fluorescence quantity of the bound cells remaining in the wells was determined with a fluorescent plate reader (Wallac 1420 ARVO multi-label counter) (filter excitation wave length: 485 nm, emission wave length: 535 nm). The fluorescent strength thus obtained is proportional to the number of RPMI-8866 cells bound to VCAM-1 and remaining on the plate. The binding rate of each test material in various concentrations was determined while the fluorescent strength of the test material-free well was determined to be 100%.

integrin α4β1 = biological target: T2, integrin α4β1 (Homo sapiens, UniProt P05556+P13612); assay: Assessment of VCAM-1/α4β1 binding antagonist activity (Jurkat cells binding to VCAM-1); assay type: cell-based; conditions: Jurkat human T cells binding to recombinant human VCAM-1; read-out: integrin VCAM/α4 binding antagonistic activity (IC50) α4β1
T2 construct: cell strain Jurkat (ATCC TIB-152) of human T cells, known to express integrin α4β1; endogenous in cells; host or cells: Jurkat (ATCC TIB-152), human T cells
Procedure: The capacity of a test substance antagonistic to the binding of cell strain Jurkat (ATCC TIB-152) of human T cells, known to express integrin α4β1, to VCAM-1 was determined.
as §1
Jurkat cells were washed with Dulbecco modified Eagle medium (SIGMA, hereinafter referred to as “DMEM”) twice and then incubated in DMEM containing 10 μg/ml of Calcein-AM (Wako Pure Chemical Industries, Ltd.) at 37° C. in dark place for 30 minutes to label with fluorescence. The cells were again suspended in a binding buffer (20 mM HEPES, DMEM containing 0.1% BSA).
as §2, with “Jurkat” for “RPMI-8866”

T2 sequence (P05556 21-798, one chain of several): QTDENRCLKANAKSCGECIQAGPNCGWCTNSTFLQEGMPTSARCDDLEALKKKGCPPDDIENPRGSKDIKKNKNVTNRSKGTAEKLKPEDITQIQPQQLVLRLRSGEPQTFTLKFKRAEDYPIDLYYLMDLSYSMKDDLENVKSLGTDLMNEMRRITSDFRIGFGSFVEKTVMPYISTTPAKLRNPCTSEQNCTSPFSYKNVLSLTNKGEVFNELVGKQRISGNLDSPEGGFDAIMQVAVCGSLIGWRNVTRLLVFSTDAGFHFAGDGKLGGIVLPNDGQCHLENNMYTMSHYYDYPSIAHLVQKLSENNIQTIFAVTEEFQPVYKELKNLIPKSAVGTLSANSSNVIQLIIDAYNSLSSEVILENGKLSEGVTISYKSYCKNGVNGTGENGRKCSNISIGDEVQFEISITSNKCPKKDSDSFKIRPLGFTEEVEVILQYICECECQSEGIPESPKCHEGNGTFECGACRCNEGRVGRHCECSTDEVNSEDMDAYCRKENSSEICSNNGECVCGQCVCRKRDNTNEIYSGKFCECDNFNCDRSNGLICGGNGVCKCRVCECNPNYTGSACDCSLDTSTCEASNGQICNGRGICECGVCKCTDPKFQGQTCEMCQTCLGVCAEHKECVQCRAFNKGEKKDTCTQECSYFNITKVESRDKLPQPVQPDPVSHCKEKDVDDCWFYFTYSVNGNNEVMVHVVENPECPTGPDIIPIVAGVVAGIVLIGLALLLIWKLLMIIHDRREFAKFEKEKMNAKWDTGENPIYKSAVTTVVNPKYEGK

Row | IC50 (integrin α4β7) | IC50 (integrin α4β1) | SMILES
1 | 70 nM | 1580 nM | CC(C)CNc1nc2ccccc2c(=O)n1-c1ccc(C[C@H](NC(=O)c2c(Cl)cccc2Cl)C(=O)O)cc1 [compound 126]
2 | 76.4 nM | 2020 nM | CCN(C)c1nc2ccccc2c(=O)n1-c1ccc(C[C@H](NC(=O)c2c(Cl)cccc2Cl)C(=O)O)cc1 [compound 129]
3 | 7.1 nM | 120 nM | Cn1c(=O)n(-c2ccc(C[C@H](NC(=O)c3c(Cl)cccc3C(F)(F)F)C(=O)O)cc2)c(=O)c2ccccc21 [compound 164]
4 | 0.6 nM | 11 nM | Cn1c(=O)n(-c2ccc(C[C@H](NC(=O)c3c(Cl)cccc3Br)C(=O)O)cc2)c(=O)c2ccccc21 [compound 165]
5 | 0.5 nM | 6 nM | Cn1c(=O)n(-c2ccc(C[C@H](NC(=O)c3c(Cl)cncc3Cl)C(=O)O)cc2)c(=O)c2ccccc21 [compound 169]

More lines, now with the values behind:

Row | SMILES | IC50 (integrin α4β7) | IC50 (integrin α4β1)
6 | Cc1ccc(Cn2c(=O)n(-c3ccc(C[C@H](NC(=O)c4c(Cl)cccc4Cl)C(=O)O)cc3)c(=O)c3ccccc32)cc1 [compound 118] | 16 nM | 385 nM
7 | O=C(N[C@@H](Cc1ccc(-n2c(=O)c3ccccc3n(Cc3ccccc3Cl)c2=O)cc1)C(=O)O)c1c(Cl)cccc1Cl [compound 119] | 21 nM | 440 nM
8 | Cc1ccccc1Cn1c(=O)n(-c2ccc(C[C@H](NC(=O)c3c(Cl)cccc3Cl)C(=O)O)cc2)c(=O)c2ccccc21 [compound 120] | 24 nM | 500 nM
9 | O=C(N[C@@H](Cc1ccc(-n2c(=O)c3ccccc3n(Cc3c(F)cccc3Cl)c2=O)cc1)C(=O)O)c1c(Cl)cccc1Cl [compound 121] | 14 nM | 109 nM
10 | O=C(N[C@@H](Cc1ccc(-n2c(=O)c3ccccc3n(Cc3ccccc3)c2=O)cc1)C(=O)O)c1c(Cl)cccc1Cl [compound 122] | 0.6 nM | 310 nM
